Assay results published in the CheMixHub viscosity set.

Experiment: xn = mol fraction of the nth substance listed

c1ccccc1 + CCCCCCC
Details | viscosity [mPa·s]
294.15 K, 101 kPa, x1 = 0.6 | 0.4728
295.15 K, 101 kPa, x1 = 0.3 | 0.427
298 K, 101 kPa, x1 = 0.5 | 0.4167
298 K, 101.33 kPa, x1 = 0.1007 | 0.3923
298 K, 101.33 kPa, x1 = 0.1109 | 0.3913
298 K, 101.33 kPa, x1 = 0.1922 | 0.4003
298 K, 101.33 kPa, x1 = 0.276 | 0.4019
298 K, 101.33 kPa, x1 = 0.2915 | 0.4023
298 K, 101.33 kPa, x1 = 0.3953 | 0.4142
298 K, 101.33 kPa, x1 = 0.4839 | 0.4157
298 K, 101.33 kPa, x1 = 0.5204 | 0.4382
298 K, 101.33 kPa, x1 = 0.6729 | 0.4487
298 K, 101.33 kPa, x1 = 0.6893 | 0.5006
298 K, 101.33 kPa, x1 = 0.6967 | 0.4544
298 K, 101.33 kPa, x1 = 0.8532 | 0.5208
298 K, 101.33 kPa, x1 = 0.9152 | 0.5442
298.15 K, 101 kPa, x2 = 0.1025 | 0.53
298.15 K, 101 kPa, x2 = 0.2002 | 0.491
298.15 K, 101 kPa, x2 = 0.2919 | 0.46
298.15 K, 101 kPa, x2 = 0.4003 | 0.429
298.15 K, 101 kPa, x2 = 0.5192 | 0.41
298.15 K, 101 kPa, x2 = 0.6209 | 0.401
298.15 K, 101 kPa, x2 = 0.7084 | 0.392
298.15 K, 101 kPa, x2 = 0.7893 | 0.388
298.15 K, 101 kPa, x2 = 0.9165 | 0.386
298.15 K, 101.33 kPa, x2 = 0.095 | 0.532
298.15 K, 101.33 kPa, x2 = 0.1973 | 0.485
298.15 K, 101.33 kPa, x2 = 0.2999 | 0.455
298.15 K, 101.33 kPa, x2 = 0.3741 | 0.439
298.15 K, 101.33 kPa, x2 = 0.3984 | 0.431
298.15 K, 101.33 kPa, x2 = 0.4961 | 0.414
298.15 K, 101.33 kPa, x2 = 0.5995 | 0.403
298.15 K, 101.33 kPa, x2 = 0.6762 | 0.397
298.15 K, 101.33 kPa, x2 = 0.7309 | 0.395
298.15 K, 101.33 kPa, x2 = 0.7987 | 0.391
298.15 K, 101.33 kPa, x2 = 0.8933 | 0.389
308.15 K, 101 kPa, x2 = 0.1025 | 0.47
308.15 K, 101 kPa, x2 = 0.2002 | 0.44
308.15 K, 101 kPa, x2 = 0.2919 | 0.412
308.15 K, 101 kPa, x2 = 0.4003 | 0.388
308.15 K, 101 kPa, x2 = 0.5192 | 0.37
308.15 K, 101 kPa, x2 = 0.6209 | 0.36
308.15 K, 101 kPa, x2 = 0.7084 | 0.355
308.15 K, 101 kPa, x2 = 0.7893 | 0.351
308.15 K, 101 kPa, x2 = 0.9165 | 0.349
318 K, 101 kPa, x1 = 0.5 | 0.3407
318.15 K, 101 kPa, x2 = 0.1025 | 0.42
318.15 K, 101 kPa, x2 = 0.2002 | 0.396
318.15 K, 101 kPa, x2 = 0.2919 | 0.371
318.15 K, 101 kPa, x2 = 0.4003 | 0.352
318.15 K, 101 kPa, x2 = 0.5192 | 0.338
318.15 K, 101 kPa, x2 = 0.6209 | 0.33
318.15 K, 101 kPa, x2 = 0.7084 | 0.325
318.15 K, 101 kPa, x2 = 0.7893 | 0.319
318.15 K, 101 kPa, x2 = 0.9165 | 0.318
323.15 K, 101 kPa, x1 = 0.6 | 0.342

CCCCCCCCCCCCCC + CCCCCCCC
viscosity [mPa·s]
Details | x1 = 0.1504 | x1 = 0.3504 | x1 = 0.4999 | x1 = 0.6485 | x1 = 0.8475 | x2 = 0.367 | x2 = 0.635 | x2 = 0.839
293.15 K, 101.33 kPa | – | – | – | – | – | 1.501 | 1.003 | 0.753
303.16 K, 101.3 kPa | 0.6303 | 0.8589 | 1.056 | 1.276 | 1.612 | – | – | –
308.16 K, 101.3 kPa | 0.5925 | 0.8026 | 0.9789 | 1.176 | 1.476 | – | – | –

CCCCCO + CCCCCCCC
viscosity [mPa·s], 101 kPa
Details | 298.15 K | 318.15 K
x1 = 0.0618 | 0.537 | 0.426
x1 = 0.1297 | 0.57 | 0.449
x1 = 0.2063 | 0.617 | 0.484
x1 = 0.2744 | 0.671 | 0.517
x1 = 0.3509 | 0.749 | 0.57
x1 = 0.5159 | 1.007 | 0.72
x1 = 0.5831 | 1.166 | 0.813
x1 = 0.6979 | 1.536 | 1.025
x1 = 0.8127 | 2.072 | 1.298
x1 = 0.9043 | 2.694 | 1.611
x1 = 0.952 | 3.056 | 1.814

CC12CC3CC(C)(C1)CC(C)(C3)C2 + CCCCCCCCC
viscosity [mPa·s], 100 kPa
Details | x1 = 0.1012 | x1 = 0.2132 | x1 = 0.3009 | x1 = 0.3978 | x1 = 0.4998 | x1 = 0.6007 | x1 = 0.6969 | x1 = 0.7984 | x1 = 0.8985
293.15 K | 0.831 | 0.936 | 1.021 | 1.11 | 1.231 | 1.395 | 1.593 | 1.852 | 2.201
298.15 K | 0.775 | 0.87 | 0.95 | 1.028 | 1.135 | 1.282 | 1.458 | 1.685 | 1.995
303.15 K | 0.726 | 0.812 | 0.883 | 0.952 | 1.052 | 1.183 | 1.342 | 1.544 | 1.818
308.15 K | 0.682 | 0.76 | 0.825 | 0.889 | 0.978 | 1.095 | 1.238 | 1.418 | 1.662
313.15 K | 0.639 | 0.711 | 0.771 | 0.831 | 0.914 | 1.022 | 1.147 | 1.309 | 1.526
318.15 K | 0.603 | 0.67 | 0.724 | 0.781 | 0.859 | 0.954 | 1.067 | 1.212 | 1.408
323.15 K | 0.569 | 0.633 | 0.681 | 0.737 | 0.807 | 0.894 | 0.996 | 1.13 | 1.304

CCCCCCCC + CCCCCCCCCC
viscosity [mPa·s]
Details | 297.95 K | 298.15 K | 313.05 K
101 kPa, x1 = 0.1384 | 0.8136 | – | 0.6803
101 kPa, x1 = 0.2144 | 0.7783 | – | 0.6439
101 kPa, x1 = 0.3015 | 0.7465 | – | 0.6261
101 kPa, x1 = 0.3894 | 0.6993 | – | 0.5975
101 kPa, x1 = 0.452 | 0.6767 | – | 0.5817
101 kPa, x1 = 0.601 | 0.6312 | – | 0.5417
101 kPa, x1 = 0.6988 | 0.5898 | – | 0.5129
101 kPa, x1 = 0.8208 | 0.5543 | – | 0.4761
101 kPa, x1 = 0.8858 | 0.5327 | – | 0.4643
101.33 kPa, x1 = 0.1059 | – | 0.8166 | –
101.33 kPa, x1 = 0.2142 | – | 0.7747 | –
101.33 kPa, x1 = 0.3038 | – | 0.7382 | –
101.33 kPa, x1 = 0.4052 | – | 0.6937 | –
101.33 kPa, x1 = 0.5057 | – | 0.6694 | –
101.33 kPa, x1 = 0.6061 | – | 0.6305 | –
101.33 kPa, x1 = 0.7032 | – | 0.6018 | –
101.33 kPa, x1 = 0.8002 | – | 0.5722 | –
101.33 kPa, x1 = 0.9058 | – | 0.5366 | –

c1ccccc1 + CCCCCCCCCC
Details | viscosity [mPa·s]
298 K, 101 kPa, x1 = 0.5 | 0.6712
298.15 K, 101.33 kPa, x2 = 0.03584 | 0.6003
298.15 K, 101.33 kPa, x2 = 0.1004 | 0.5986
298.15 K, 101.33 kPa, x2 = 0.2013 | 0.6012
298.15 K, 101.33 kPa, x2 = 0.2902 | 0.613
298.15 K, 101.33 kPa, x2 = 0.3988 | 0.6372
298.15 K, 101.33 kPa, x2 = 0.5 | 0.6648
298.15 K, 101.33 kPa, x2 = 0.5943 | 0.6949
298.15 K, 101.33 kPa, x2 = 0.7021 | 0.7313
298.15 K, 101.33 kPa, x2 = 0.8353 | 0.7784
298.15 K, 101.33 kPa, x2 = 0.9165 | 0.8085
318 K, 101 kPa, x1 = 0.5 | 0.5262
